From US8273769B2, “Phenoxy acetic acid derivatives” (Merck Serono SA, priority 2009, dated 2012)

target: T1, CRTH2 (Homo sapiens, UniProt Q9Y5Y4); assay: Radioligand binding Scintillation Proximity Assay ([3H]PGD2, hCRTH2-CHO cell membranes); parameters: host or cells: CHO cells; settings: 1.5 nM [3H]PGD2, hCRTH2-CHO cell membranes, SPA
T1 sequence (Q9Y5Y4 1-395): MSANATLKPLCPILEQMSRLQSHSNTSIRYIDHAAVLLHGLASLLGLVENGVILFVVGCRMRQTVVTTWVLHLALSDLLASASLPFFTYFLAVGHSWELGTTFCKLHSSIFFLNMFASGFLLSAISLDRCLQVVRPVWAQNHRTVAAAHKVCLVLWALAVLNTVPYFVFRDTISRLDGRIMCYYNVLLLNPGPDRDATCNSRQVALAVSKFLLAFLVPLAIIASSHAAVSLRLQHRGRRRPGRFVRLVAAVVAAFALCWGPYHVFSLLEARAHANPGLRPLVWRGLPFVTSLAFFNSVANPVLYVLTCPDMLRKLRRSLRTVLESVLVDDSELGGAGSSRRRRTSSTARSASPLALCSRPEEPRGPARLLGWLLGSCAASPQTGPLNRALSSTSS
Experimental: Adherent CHO cells expressing hCRTH2 (Euroscreen, Belgium) were cultured in 225 cm^2 cell culture flasks (Corning, USA) in 30 ml of medium. After two rinses of phosphate buffered saline (PBS), cells were harvested in 10 ml of PBS containing 1 mM EDTA, centrifuged at 500×g for 5 min at 4° C. and frozen at −80° C. The pellet was re-suspended in 50 mM Tris-HCl, pH 7.4, 2 mM EDTA, 250 mM Sucrose, containing protease inhibitor cocktail tablets, (Complete EDTA-free, Roche, Germany) and incubated 30 min at 4° C. Cells were disrupted by nitrogen cavitation (Parr Instruments, USA) at 4° C. (800 p.s.i. for 30 min), and centrifuged at 500×g for 10 min at 4° C. Pellet containing nuclei and cellular debris was discarded and supernatant was centrifuged 60 min at 4° C. at 45000×g. Membrane pellet was re-suspended in storage buffer (10 mM HEPES/KOH pH 7.4, 1 mM EDTA, 250 mM sucrose, protease inhibitor cocktail tablets) using Dounce homogenization and frozen in liquid nitrogen, and stored at −80° C.
The inhibitory activity can be investigated by a radioligand binding Scintillation Proximity Assay (SPA) (Sawyer et al., Br. J. Pharmocol 2002, 137, 1163-72). The SPA radioligand binding assay was performed at room temperature in binding buffer (10 mM HEPES/KOH pH 7.4, 10 mM MnCl2, with protease inhibitor cocktail tablets), containing 1.5 nM [^3H]PGD2 (Perkin Elmer), 10-50 μg/ml of hCRTH2-CHO cell membrane protein and 2 mg/ml of Wheat-germ agglutinin Sintillation Proximity Assay beads (RPNQ0001, GE-Healthcare) in a final volume of 100 μl in 96 well plates (Corning, USA). Non-specific binding was determined in the presence of 10 μM PGD2 (Cayman, USA). Competing Compounds of Formula (I) were diluted in dimethylsulphoxide so that the total volume of dimethylsulfoxide was kept constant at 1% dimethylsulphoxide (Me2SO). Serial dilutions of 100 μM to 100 pM were prepared and 10 μl each of the compounds of Formula (I) stock solutions were added to the binding assay reagents and incubated for 90 min with agitation at room temperature. Binding activity was determined by using a 1450 Micro-beta scintillation counter (Wallac, UK).

| Structure (SMILES) | IC50 [nM] |
| --- | --- |
| CS(=O)(=O)c1ccc(N2CCCCC2)c(C#Cc2cc(C#N)ccc2OCC(=O)O)c1 [Example 62, (4-cyano-2-{[5-(methylsulfonyl)-2-piperidin-1-ylphenyl]ethynyl}phenoxy)acetic acid] | 202 |
| Cc1ccc(S(=O)(=O)CCCO)cc1C#Cc1cc(C#N)ccc1OCC(=O)O [Example 73, [4-cyano-2-({5-[(3-hydroxypropyl)sulfonyl]-2-methylphenyl}ethynyl)phenoxy]acetic acid] | 57 |
| CCCS(=O)(=O)c1cccc(C#Cc2c(Cl)cccc2OCC(=O)O)c1 [Example 74, (3-chloro-2-{[3-(propylsulfonyl)phenyl]ethynyl}phenoxy)acetic acid] | 70 |
| N#Cc1ccc(OCC(=O)O)c(C#Cc2cncc(S(=O)(=O)NCCO)c2)c1 [Example 75, {4-cyano-2-[(5-{[(2-hydroxyethyl)amino]sulfonyl}pyridin-3-yl)ethynyl]phenoxy}acetic acid] | 372 |
| CN(C)S(=O)(=O)c1cccc(C#Cc2cc(Cl)ccc2OCC(=O)O)c1 [Example 80, [4-chloro-2-({3-[(dimethylamino)sulfonyl]phenyl}ethynyl)phenoxy]acetic acid] | 19 |
| Cc1ccc(S(=O)(=O)NC(C)(C)C)cc1C#Cc1cc(Cl)ccc1OCC(=O)O [Example 85, [2-({5-[(tert-butylamino)sulfonyl]-2-methylphenyl}ethynyl)-4-chlorophenoxy]acetic acid] | 7 |
| Cc1ccc(S(=O)(=O)Cc2ccccc2)cc1C#Cc1cc(Cl)ccc1OCC(=O)O [Example 91, (2-{[5-(benzylsulfonyl)-2-methylphenyl]ethynyl}-4-chlorophenoxy)acetic acid] | 7 |
| Cc1ccc(S(=O)(=O)CCc2ccccc2)cc1C#Cc1cc(Cl)ccc1OCC(=O)O [Example 92, [4-chloro-2-({2-methyl-5-[(2-phenylethyl)sulfonyl]phenyl}ethynyl)phenoxy]acetic acid] | 9 |
| Cc1ccc(S(=O)(=O)Cc2ccccc2)cc1C#Cc1cc(C#N)ccc1OCC(=O)O [Example 93, (2-{[5-(benzylsulfonyl)-2-methylphenyl]ethynyl}-4-cyanophenoxy)acetic acid] | 13 |
| Cc1ccc(S(=O)(=O)CCc2ccccc2)cc1C#Cc1cc(C#N)ccc1OCC(=O)O [Example 96, [4-cyano-2-({2-methyl-5-[(2-phenylethyl)sulfonyl]phenyl}ethynyl)phenoxy]acetic acid] | 7 |
| Cc1cc(F)c(S(C)(=O)=O)cc1C#Cc1cc(Cl)ccc1OCC(=O)O [Example 97, (4-chloro-2-{[4-fluoro-2-methyl-5-(methylsulfonyl)phenyl]ethynyl}phenoxy)acetic acid] | 8 |
| CCCS(=O)(=O)c1cccc(C#Cc2cc(F)ccc2OCC(=O)O)c1 [Example 99, (4-fluoro-2-{[3-(propylsulfonyl)phenyl]ethynyl}phenoxy)acetic acid] | 79 |
| Cc1ccc(S(=O)(=O)N(C)CC(C)C)cc1C#Cc1cc(Cl)ccc1OCC(=O)O [Example 110, {4-chloro-2-[(5-{[isobutyl(methyl)amino]sulfonyl}-2-methylphenyl)ethynyl]phenoxy}acetic acid] | 5 |

More lines, in order of falling IC50, values ahead:

| IC50 [nM] | Structure (SMILES) |
| --- | --- |
| 364 | CN(c1cncc(C#Cc2cc(C#N)ccc2OCC(=O)O)c1)S(C)(=O)=O [Example 72, [4-cyano-2-({5-[methyl(methylsulfonyl)amino]pyridin-3-yl}ethynyl)phenoxy]acetic acid] |
| 360 | N#Cc1ccc(OCC(=O)O)c(C#Cc2cncc(S(=O)(=O)N3CCOCC3)c2)c1 [Example 77, (4-cyano-2-{[5-(morpholin-4-ylsulfonyl)pyridin-3-yl]ethynyl}phenoxy)acetic acid] |
| 193 | CCCS(=O)(=O)c1cccc(C#Cc2nc(C)ccc2OCC(=O)O)c1 [Example 66, [(6-methyl-2-{[3-(propylsulfonyl)phenyl]ethynyl}pyridin-3-yl)oxy]acetic acid] |
| 186 | CS(=O)(=O)c1cncc(C#Cc2cc(C#N)ccc2OCC(=O)O)c1 [Example 69, (4-cyano-2-{[5-(methylsulfonyl)pyridin-3-yl}ethynyl]phenoxy)acetic acid] |
| 171 | N#Cc1ccc(OCC(=O)O)c(C#Cc2cncc(S(=O)(=O)N3CC(F)(F)C3)c2)c1 [Example 76, [4-cyano-2-({5-[(3,3-difluoroazetidin-1-yl)sulfonyl]pyridin-3-yl}ethynyl)phenoxy]acetic acid] |
| 154 | CS(=O)(=O)c1ccc(C#Cc2cc(Cl)ccc2OCC(=O)O)cc1 [Example 90, (4-chloro-2-{[4-(methylsulfonyl)phenyl]ethynyl}phenoxy)acetic acid] |
| 136 | Cc1ccc(S(=O)(=O)CCO)cc1C#Cc1cc(C#N)ccc1OCC(=O)O [Example 64, [4-cyano-2-({5-[(2-hydroxyethyl)sulfonyl]-2-methylphenyl}ethynyl)phenoxy]acetic acid] |
| 60 | CS(=O)(=O)Cc1cccc(C#Cc2cc(Cl)ccc2OCC(=O)O)c1 [Example 98, [4-chloro-2-({3-[(methylsulfonyl)methyl]phenyl}ethynyl)phenoxy]acetic acid] |
| 52 | O=C(O)COc1ccc(Cl)cc1C#Cc1cncc(S(=O)(=O)N2CCOCC2)c1 [Example 79, (4-chloro-2-{[5-(morpholin-4-ylsulfonyl)pyridin-3-yl]ethynyl}phenoxy)acetic acid] |
| 40 | O=C(O)COc1ccc(Cl)cc1C#Cc1cncc(S(=O)(=O)N2CC(F)(F)C2)c1 [Example 78, [4-chloro-2-({5-[(3,3-difluoroazetidin-1-yl)sulfonyl]pyridin-3-yl}ethynyl)phenoxy]acetic acid] |
| 33 | CCS(=O)(=O)c1ccc(C)c(C#Cc2cc(C#N)ccc2OCC(=O)O)c1 [Example 63, (4-cyano-2-{[5-(ethylsulfonyl)-2-methylphenyl]ethynyl}phenoxy)acetic acid] |
| 13 | CNS(=O)(=O)c1ccc(C)c(C#Cc2cc(Cl)ccc2OCC(=O)O)c1 [Example 84, [4-chloro-2-({2-methyl-5-[(methylamino)sulfonyl]phenyl}ethynyl)phenoxy]acetic acid] |
| 12 | Cc1ccc(S(=O)(=O)C(C)C)cc1C#Cc1cc(C#N)ccc1OCC(=O)O [Example 68, (4-cyano-2-{[5-(isopropylsulfonyl)-2-methylphenyl]ethynyl}phenoxy)acetic acid] |
| 11 | Cc1ccc(S(=O)(=O)c2ccccc2)cc1C#Cc1cc(C#N)ccc1OCC(=O)O [Example 94, (4-cyano-2-{[2-methyl-5-(phenylsulfonyl)phenyl]ethynyl}phenoxy)acetic acid] |
| 7 | Cc1ccc(S(=O)(=O)N2CCCCC2)cc1C#Cc1cc(Cl)ccc1OCC(=O)O [Example 88, (4-chloro-2-{[2-methyl-5-(piperidin-1-ylsulfonyl)phenyl]ethynyl}phenoxy)acetic acid] |
| 6 | CCCCN(C)S(=O)(=O)c1ccc(C)c(C#Cc2cc(Cl)ccc2OCC(=O)O)c1 [Example 111, {2-[(5-{[butyl(methyl)amino]sulfonyl}-2-methylphenyl)ethynyl]-4-chlorophenoxy}acetic acid] |
| 5 | CCN(CC)S(=O)(=O)c1ccc(C)c(C#Cc2cc(Cl)ccc2OCC(=O)O)c1 [Example 81, [4-chloro-2-({5-[(diethylamino)sulfonyl]-2-methylphenyl}ethynyl)phenoxy]acetic acid] |
| 5 | Cc1ccc(S(=O)(=O)N2CCOCC2)cc1C#Cc1cc(Cl)ccc1OCC(=O)O [Example 82, (4-chloro-2-{[2-methyl-5-(morpholin-4-ylsulfonyl)phenyl]ethynyl}phenoxy)acetic acid] |
| 2 | Cc1ccc(S(=O)(=O)N2CCCCC2C)cc1C#Cc1cc(Cl)ccc1OCC(=O)O (centres unmarked) [Example 108, [4-chloro-2-({2-methyl-5-[(2-methylpiperidin-1-yl)sulfonyl]phenyl}ethynyl)-phenoxy]acetic acid] |
